Reference: patent US20180369230A1, “TARGETED SELECTION OF PATIENTS FOR TREATMENT WITH SPECIFIC CORTISTATIN DERIVATIVES” (President and Fellows of Harvard College, priority 2015, published 2018)

Columns and labels:
Type in all cases: cell-based
Caki-2 = test: Soft agar growth assay; conditions: Caki-2, clear cell renal cell carcinoma, VHL negative, 100 nM
Protocol: (§1) For the 62 cell lines 96 well suspension cell culture plates were prepared. 100 μL of the soft agar bottom layer (0.6% final concentration in complete medium) was poured and left to solidify. 50 μL of the soft agar top layer (0.4% final concentration) containing the corresponding cells and cell number were then added on top, solidified and incubated at 37° C., 10% CO2. After the soft agar had solidified, the test items were added at indicated final concentrations into the inner wells of the plate. Subsequently, the assay was incubated in cell culture incubators for 8 to 14 days. Finally, the assay was developed using Alamar Blue and upon 1-5 h of incubation at 37° C. fluorescence intensity was determined (excitation: 560 nm; emission: 590 nm). As low control, cells were treated with 1E-05M Staurosporine (6fold values). As high control, cells were treated with 0.1% DMSO (solvent control, 6 fold values).
(§2) Raw data were converted into percent soft agar growth relative to high controls (solvent 0.1% DMSO) and low controls (1E-05M Staurosporine), which were set to 100% and 0%, respectively. The results are tabulated in FIGS. 15A, 15B, and 15C and Table 4 below.

RL95-2 = test: Soft agar growth assay; conditions: RL95-2, Endometrial cancer, ER-alpha positive, 100 nM
Protocol: as §1, §2

SK-N-SH = test: Soft agar growth assay; conditions: Neuroblastoma, 100 nM
Protocol: as §1, §2

SK-N-F1 = test: Soft agar growth assay; conditions: SK-N-F1, Neuroblastoma, 100 nM
Protocol: as §1, §2

MCF-7 = test: Soft agar growth assay; conditions: MCF-7, Breast cancer, ER-alpha positive, 100 nM
Protocol: as §1, §2

SK-N-MC = test: Soft agar growth assay; conditions: Neuroblastoma, EWS-FLI1, 100 nM
Protocol: as §1, §2

NCI-N87 = test: Soft agar growth assay; conditions: NCI-N87, Gastric cancer, HER2 overexpression, 100 nM
Protocol: as §1, §2

HCC827 = test: Soft agar growth assay; conditions: HCC827, Non small cell lung carcinoma, EGFR mutation, 100 nM
Protocol: as §1, §2

U87MG = test: Soft agar growth assay; conditions: Glioma, inactivating mutations in ETV1, FLI1 and SMC3, 100 nM
Protocol: as §1, §2

MKN-45 = test: Soft agar growth assay; conditions: MKN-45, Gastric cancer, MET amplification, 100 nM
Protocol: as §1, §2

A498 = test: Soft agar growth assay; conditions: A498, clear cell renal cell carcinoma, VHL negative, 100 nM
Protocol: as §1, §2

SK-ES-1 = test: Soft agar growth assay; conditions: SK-ES-1, Osteosarcoma, EWS-FLI1, 100 nM
Protocol: as §1, §2

SK.BR-3 = test: Soft agar growth assay; conditions: SK.BR-3, Breast cancer, HER2 overexpression, 100 nM
Protocol: as §1, §2

MOLM-14 cells = test: Screening drug resistant alleles; conditions: WT and mutated CDK8 and CDK19
Protocol: All suspension cells were plated (96-well) in triplicate at 5,000-30,000 cells per well for testing (n=3). Viable cell number was estimated after 3, 7 and 10 days by counting viable cells from one vehicle well, generating a cell dilution series, transferring […] per well in duplicate to a 384-well plate, and performing a linear regression to CellTiter-Glo (Promega) response (SPECTRAmax M3, Molecular Devices). Cells from all wells were also fourfold diluted in media and transferred in duplicate for CellTiter-Glo measurement. On days 3 and 7, an equal volume for all wells was split-back with fresh media and compound, such that the resulting cell density for the vehicle well matched the initial seeding density. For days 7 and 10, estimated cell number represents the split-adjusted theoretical cell number. HCT116 were plated (96-well) in triplicate at 250 cells per well. Cells were incubated in the presence of vehicle, 1 μM paclitaxel, or compound. On day 7, CellTiter-Blue (Promega) response was measured and values were normalized to vehicle (100% growth) and paclitaxel (0% growth). For growth assays with inhibitors, n=3 for each concentration with two independent experiments. […]

MOLM-16 = test: Cellular proliferation assay; conditions: AMkL < 1
Protocol: (§3) All suspension cells were plated (96-well) in triplicate at 5,000-30,000 cells per well for testing (n=3). Viable cell number was estimated after 3, 7 and 10 days by counting viable cells from one vehicle well, generating a cell dilution series, transferring […] per well in duplicate to a 384-well plate, and performing a linear regression to CellTiter-Glo (Promega) response (SPECTRAmax M3, Molecular Devices). Cells from all wells were also fourfold diluted in media and transferred in duplicate for CellTiter-Glo measurement. On days 3 and 7, an equal volume for all wells was split-back with fresh media and compound, such that the resulting cell density for the vehicle well matched the initial seeding density. For days 7 and 10, estimated cell number represents the split-adjusted theoretical cell number. HCT116 were plated (96-well) in triplicate at 250 cells per well. Cells were incubated in the presence of vehicle, 1 μM paclitaxel, or compound. On day 7, CellTiter-Blue (Promega) response was measured and values were normalized to vehicle (100% growth) and paclitaxel (0% growth). For growth assays with inhibitors, n=3 for each concentration with two independent experiments.

ALL-SIL = test: Cellular proliferation assay; conditions: T-ALL, TLX1 overexpression
Protocol: as §3

Kasumi-1 = test: Cellular proliferation assay; conditions: AML, RUNX1-RUNX1T1
Protocol: as §3

SET-2 cells = test: SET-2 differentiation assay; conditions: 50 nM, 3 days, flow cytometry
Protocol: For the SET-2 differentiation assay, cells were plated (6-well) in triplicate at 150,000 cells per ml for 3-days with 50 nM CA, 50 ng ml^−1 PMA (positive control), or vehicle. Cell pellets were collected at 4° C., washed three times with cold PBS, and stained with anti-CD61-PE (ab91128) or anti-CD41-PerCP (ab134373) and analyzed by flow cytometry. For each experiment, n=3 biological replicates with two independent experiments and one shown (FIG. 3).

[1] = system: ruxolitnib persistence cells; test: Growth inhibition in ruxolitinib persistent cells; conditions: FIG. 5 legend; read-out: G150 in ruxolitnib persistence cells

How did the “% growth rel. to vehicle” value (Caki-2) turn out when Cortistatin A was run?
The value was 18%.

What about the “% growth rel. to vehicle” value (RL95-2) of the same substance?
The value was 16%.

What about the “% growth rel. to vehicle” value (SK-N-SH) of the same substance?
The value was 29%.

What about the “% growth rel. to vehicle” value (SK-N-F1) of the same substance?
The value was 30%.

And the “% growth rel. to vehicle” value (MCF-7)?
The value was 49%.

What about the “% growth rel. to vehicle” value (SK-N-MC) of the same substance?
Its value is 45%.

And the “% growth rel. to vehicle” value (NCI-N87)?
Its value is 26%.

And the “% growth rel. to vehicle” value (HCC827)?
Its value is 23%.

What about the “% growth rel. to vehicle” value (U87MG) of the same substance?
Its value is 36%.

And the “% growth rel. to vehicle” value (MKN-45)?
The value was 27%.

And the “% growth rel. to vehicle” value (A498)?
The value was 51%.

And the “% growth rel. to vehicle” value (SK-ES-1)?
The value was 36%.

And the “% growth rel. to vehicle” value (SK.BR-3)?
Its value is 22%.

And the “growth of cells expressing CDK8 W105M or CDK19 W105M” value (MOLM-14 cells)?
The value was “confers Cortistatin A resistance”.

And the GI50 (MOLM-16)?
The GI50 was less than 1 nM.

And the GI50 (ALL-SIL)?
Its GI50 is 2 nM.

What about the GI50 (Kasumi-1) of the same substance?
The GI50 was 95 nM.

What about the “differentiation, megakaryocytic markers CD41 and CD61” value (SET-2 cells) of the same substance?
The value was “induces differentiation”.

And the IC50 [1]?
Its IC50 is 2 to 10 nM.
